Here are results for six substances from US11542316B2, “S-Arrestin peptides and therapeutic uses thereof” (APITOPE INTERNATIONAL NV, priority 2017, dated 2023).

Ends that are not written are not given here.

A short description of one data set: Solubility of peptides. The data set is classed as physicochemical. As to the method:
The solubility of potential apitopes from S—Ag are determined by visual observations and turbidity measurement by UV spectrophotometry at 280 nm. The solubility of the peptides can be modified by adding amino acids ‘GKK’ or ‘KKK’ (or similar) on both the C- and N-terminus of the sequence. Modifications that may be suitable are described in WO2014/072958 (which is hereby incorporated by reference).
For some of these peptides, the parental peptides were insoluble, and solubility is a critical parameter for them to work as a tolerogenic peptide. Several end-terminal modifications can be used and as example used here they were improved by addition of 3 lysines before and after the original peptide sequence (labelled as ‘-KKK’ versions).

Data set [1] deals with SAg-specific hybridoma cells / T cell line with VAVY APC. The experiment in a line: Antigen Processing Independent Presentation System (APIPS) assay, fresh or fixed VAVY APC. The data set is classed as cell-based, DR3 mice. To be noted: DR3 hybridoma clone (IL-2, 48 h) or T cell line (IFN-γ, 24 h). A digest of the protocol:
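SAg-specific hybridomas (5×10^4) or peptide-restimulated T cell lines from immunized DR3 mice were cultured with fresh or 0.5% paraformaldehyde-fixed (5 min, RT) VAVY APCs and peptide (10 or 25 μg/ml). Read-out: IL-2 ELISA at 48 h for hybridomas, IFN-γ ELISA at 24 h for T cell lines.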

In the case of “KKKAFVEQVANVVLKKK-NH2 [HIP-9K1-KKK, KKKAFVEQVANVVLKKK]”, the solubility result in “Solubility of peptides” is “soluble”.

For the substance KKKLTFRRDLYFSRVQVYKKK-NH2 [HIP-17J-KKK], the “behaves as apitope (response to peptide presented by fresh or fixed APC)” value (from here on “behaves as apitope”) in data set [1] was “behave as apitopes”.

Consider “KKKVIFKKISRDKSVTIYLGKKK-NH2 [HIP-115NE3-KKK]”, for which the “behaves as apitope” value in data set [1] is given as “behave as apitopes”. Further, the solubility result in “Solubility of peptides” is “soluble”.

“LPLLANNRERRGIA-NH2 [HIP-24HM3, LPLLANNRERRGIA]”: in data set [1], the “behaves as apitope” value was “behave as apitopes”. In addition, the solubility entry in “Solubility of peptides” is “soluble”.

“LTKTLTLLPLLANNRERR-NH2 [HIP-24DG, LTKTLTLLPLLANNRERR]”: the “behaves as apitope” value in data set [1] is reported as “behave as apitopes”. In “Solubility of peptides”, the solubility result is recorded as “soluble”.

Consider “VIFKKISRDKSVTIYLG-NH2 [HIP-115NE3, VIFKKISRDKSVTIYLG]”, for which the “behaves as apitope” value in data set [1] was “behave as apitopes”. The solubility result in the data set “Solubility of peptides” was “insoluble”.
